Reference: patent US9023789B2, “Amylin analogs and pharmaceutical compositions thereof” (Novo Nordisk A/S, priority 2012, dated 2015)
Numbered stars: 1 amine (or outer) side, 2 acyl side, 3 side chain; on linkers, the order of the positions; unused ones are H or OH. Bridge positions count the residues as written; N and C are the ends. Side chains are listed from the residue outwards. Peptide text beside a SMILES is read from it. * marks the point of attachment. C20 diacid = O=C(O)CCCCCCCCCCCCCCCCCCC(=O)*; γGlu = O=C(O)[C@H](CCC(=O)[*:2])N[*:1]; AEEA = NCCOCCOCC(=O)O

What was measured:
[1] = target: T1, human amylin 3(a) receptor (human calcitonin receptor + RAMP-3) in BHK570 cells (Homo sapiens, UniProt O60896+P30988); experiment: ASSAY (II)a functional assay, human amylin receptor (CRE luciferase); format: cell-based; settings: for EC50: human amylin receptor functional potency, assay (II), read-out: hAmylin-R funct. EC50
T1 construct: expressed in transfected cells
T1 sequence (O60896 24-148, one chain of several): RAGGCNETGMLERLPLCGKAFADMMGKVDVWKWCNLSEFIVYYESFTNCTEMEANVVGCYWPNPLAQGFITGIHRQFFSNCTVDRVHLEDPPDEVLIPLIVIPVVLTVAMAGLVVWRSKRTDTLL
In short: (§1)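 Receptor activation is measured as cAMP-driven CRE-luciferase expression in BHK cells expressing the calcitonin receptor, with RAMP-3 co-expressed to form the amylin 3(a) receptor. Cells are exposed to compound for 3 hours at 37° C, and luciferase is then quantified by luminescence.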

[2] = target: T2, human calcitonin (a) receptor in BHK570 cells (Homo sapiens, UniProt P30988); experiment: ASSAY (II)a functional assay, human calcitonin receptor (CRE luciferase); format: cell-based; settings: read-out: hCTR funct. EC50
T2 construct: expressed in transfected cells
T2 sequence (P30988 25-474): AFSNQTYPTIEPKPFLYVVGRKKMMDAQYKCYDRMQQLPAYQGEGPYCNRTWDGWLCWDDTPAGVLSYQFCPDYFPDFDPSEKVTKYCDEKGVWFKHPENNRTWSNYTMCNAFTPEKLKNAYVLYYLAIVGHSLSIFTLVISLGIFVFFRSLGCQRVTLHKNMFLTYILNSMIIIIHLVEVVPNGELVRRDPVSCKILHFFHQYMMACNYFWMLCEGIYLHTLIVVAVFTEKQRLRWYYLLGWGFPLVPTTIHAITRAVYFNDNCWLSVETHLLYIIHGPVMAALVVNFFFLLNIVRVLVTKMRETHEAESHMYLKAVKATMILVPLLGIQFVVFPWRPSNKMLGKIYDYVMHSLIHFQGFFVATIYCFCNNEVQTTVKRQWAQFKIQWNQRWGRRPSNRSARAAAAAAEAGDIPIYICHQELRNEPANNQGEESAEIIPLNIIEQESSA
In short: as §1

[3] = ASSAY (III) ThT fibrillation assay for physical stability; format: physicochemical
In short: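 Physical stability scored by ThT fluorescence (444 nm excitation, 485 nm emission) tracked every 20 min during 37 °C incubation with 960 rpm shaking, ThT at 1 μM final. Values are replicate means with SD at chosen times; HPLC against pramlintide standard gives initial and post-assay soluble concentrations.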

[4] = target: T3, human calcitonin receptor (Homo sapiens, UniProt P30988); experiment: ASSAY (VII) binding to the human calcitonin receptor (SPA, 125I-Calcitonin); settings: read-out: hCTR bind IC50;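 note: cell membranes (35 ng/µL) combined with SPA beads in 40 µL of pH 7.4 Hepes buffer, 384-well format, signal counted on a TopCounter instrument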
T3 construct: expressed in transfected cells
T3 sequence (P30988 25-474): T2 sequence (P30988 25-474)

[5] = human functional selectivity: hCTR funct. EC50 / hAmylin-R funct. EC50
[6] = hCTR funct. EC50 divided by hAmylin-R funct. EC50
[7] = hCTR funct. EC50 over hAmylin-R funct. EC50

SMILES | EC50 [1] | Ratio hCT/hAmylin funct. [1, 5] | EC50 [2] | ThT pH 4.0 lag time (h) [3] | IC50 [4] | Ratio hCT/hAmylin funct. [1, 6] | Ratio hCT/hAmylin funct. [1, 7]
CC[C@H](C)[C@H](NC(=O)[C@H](C)NC(=O)CNC(=O)[C@H](Cc1ccccc1)NC(=O)[C@H](CC(N)=O)NC(=O)[C@H](CCCCNC(=O)CC[C@H](NC(=O)CC[C@H](NC(=O)CCCCCCCCCCCCCCCCCCC(=O)O)C(=O)O)C(=O)O)NC(=O)[C@H](CO)NC(=O)[C@H](CO)NC(=O)[C@H](Cc1c[nH]cn1)NC(=O)[C@H](CCCNC(=N)N)NC(=O)[C@H](CC(C)C)NC(=O)[C@H](Cc1ccccc1)NC(=O)[C@H](CC(=O)O)NC(=O)[C@H](C)NC(=O)[C@H](CC(C)C)NC(=O)[C@H](CCCNC(=N)N)NC(=O)[C@H](CCC(N)=O)NC(=O)[C@@H](NC(=O)[C@H](C)NC(=O)[C@@H]1CSSC[C@H](NC(=O)[C@@H](N)CCCCN)C(=O)N[C@@H](CC(N)=O)C(=O)N[C@@H]([C@@H](C)O)C(=O)N[C@@H](C)C(=O)N[C@@H]([C@@H](C)O)C(=O)N1)[C@@H](C)O)C(=O)N1CCC[C@H]1C(=O)N[C@@H](CO)C(=O)N[C@@H](CO)C(=O)N[C@H](C(=O)N[C@@H](CC(N)=O)C(=O)N[C@H](C(=O)NCC(=O)N[C@@H](CO)C(=O)N[C@@H](CC(=O)O)C(=O)N[C@H](C(=O)N[C@@H](Cc1ccc(O)cc1)C(N)=O)[C@@H](C)O)C(C)C)[C@@H](C)O [Example 59] (H-KCNTATCATQRLADFLRHSSK([γGlu-γGlu-C20 diacid])NFGAIPSSTNVGSDTY-NH2; disulfide 2-7; N-terminus assumed) | 0.389 nM | 5.0 | 1.95 nM | 23 h | 5.14 nM |  | 
CC[C@H](C)[C@H](NC(=O)[C@H](C)NC(=O)CNC(=O)[C@H](Cc1ccccc1)NC(=O)[C@H](CC(N)=O)NC(=O)[C@@H]1CCCN1C(=O)[C@H](CO)NC(=O)[C@H](CO)NC(=O)[C@H](Cc1c[nH]cn1)NC(=O)[C@H](CCCNC(=N)N)NC(=O)[C@H](CC(C)C)NC(=O)[C@H](Cc1ccccc1)NC(=O)[C@H](Cc1c[nH]cn1)NC(=O)[C@H](C)NC(=O)[C@H](CC(C)C)NC(=O)[C@H](CCCNC(=N)N)NC(=O)[C@H](CCC(N)=O)NC(=O)[C@@H](NC(=O)[C@H](C)NC(=O)[C@@H]1CSSC[C@H](NC(=O)[C@@H](N)CCCCNC(=O)CC[C@H](NC(=O)CCCCCCCCCCCCCCCCCCC(=O)O)C(=O)O)C(=O)N[C@@H](CC(N)=O)C(=O)N[C@@H]([C@@H](C)O)C(=O)N[C@@H](C)C(=O)N[C@@H]([C@@H](C)O)C(=O)N1)[C@@H](C)O)C(=O)N1CCC[C@H]1C(=O)N[C@@H](CO)C(=O)N[C@@H](CO)C(=O)N[C@H](C(=O)N[C@@H](CC(N)=O)C(=O)N[C@H](C(=O)NCC(=O)N[C@@H](CO)C(=O)N[C@@H](Cc1c[nH]cn1)C(=O)N[C@H](C(=O)N[C@@H](Cc1ccc(O)cc1)C(N)=O)[C@@H](C)O)C(C)C)[C@@H](C)O [Example 66] (H-K([γGlu-C20 diacid])CNTATCATQRLAHFLRHSSPNFGAIPSSTNVGSHTY-NH2; disulfide 2-7; N-terminus assumed) | 0.027 nM | 20.1 | 0.542 nM | 45 h | 18 nM | 20.1 | 20.1
CC[C@H](C)[C@H](NC(=O)[C@H](C)NC(=O)CNC(=O)[C@H](Cc1ccccc1)NC(=O)[C@H](CC(N)=O)NC(=O)[C@@H]1CCCN1C(=O)[C@H](CO)NC(=O)[C@H](CO)NC(=O)[C@H](Cc1c[nH]cn1)NC(=O)[C@H](CCCNC(=N)N)NC(=O)[C@H](CC(C)C)NC(=O)[C@H](Cc1ccccc1)NC(=O)[C@H](Cc1c[nH]cn1)NC(=O)[C@H](C)NC(=O)[C@H](CC(C)C)NC(=O)[C@H](CCCNC(=N)N)NC(=O)[C@H](CCC(N)=O)NC(=O)[C@@H](NC(=O)[C@H](C)NC(=O)[C@@H]1CSSC[C@H](NC(=O)[C@@H](N)CCCCNC(=O)COCCOCCNC(=O)CC[C@H](NC(=O)CCCCCCCCCCCCCCCCCCC(=O)O)C(=O)O)C(=O)N[C@@H](CC(N)=O)C(=O)N[C@@H]([C@@H](C)O)C(=O)N[C@@H](C)C(=O)N[C@@H]([C@@H](C)O)C(=O)N1)[C@@H](C)O)C(=O)N1CCC[C@H]1C(=O)N[C@@H](CO)C(=O)N[C@@H](CO)C(=O)N[C@H](C(=O)N[C@@H](CC(N)=O)C(=O)N[C@H](C(=O)NCC(=O)N[C@@H](CO)C(=O)N[C@@H](CC(N)=O)C(=O)N[C@H](C(=O)N[C@@H](Cc1ccc(O)cc1)C(N)=O)[C@@H](C)O)C(C)C)[C@@H](C)O [Example 69] (H-K([AEEA-γGlu-C20 diacid])CNTATCATQRLAHFLRHSSPNFGAIPSSTNVGSNTY-NH2; disulfide 2-7; N-terminus assumed) | 0.094 nM | 13.3 | 1.25 nM | 22 h | 8.68 nM | 13.3 | 13.3
CC[C@H](C)[C@H](NC(=O)[C@H](C)NC(=O)CNC(=O)[C@H](Cc1ccccc1)NC(=O)[C@H](CC(N)=O)NC(=O)[C@@H]1CCCN1C(=O)[C@H](CO)NC(=O)[C@H](CO)NC(=O)[C@H](Cc1c[nH]cn1)NC(=O)[C@H](CCCNC(=N)N)NC(=O)[C@H](CC(C)C)NC(=O)[C@H](Cc1ccccc1)NC(=O)[C@H](Cc1c[nH]cn1)NC(=O)[C@H](C)NC(=O)[C@H](CC(C)C)NC(=O)[C@H](CCCNC(=N)N)NC(=O)[C@H](CCC(N)=O)NC(=O)[C@@H](NC(=O)[C@H](C)NC(=O)[C@@H]1CSSC[C@H](NC(=O)[C@@H](N)CCCCNC(=O)CC[C@H](NC(=O)CCCCCCCCCCCCCCCCCCC(=O)O)C(=O)O)C(=O)N[C@@H](CC(N)=O)C(=O)N[C@@H]([C@@H](C)O)C(=O)N[C@@H](C)C(=O)N[C@@H]([C@@H](C)O)C(=O)N1)[C@@H](C)O)C(=O)N1CCC[C@H]1C(=O)N[C@@H](CO)C(=O)N[C@@H](CO)C(=O)N[C@H](C(=O)N[C@@H](CC(N)=O)C(=O)N[C@H](C(=O)NCC(=O)N[C@@H](CO)C(=O)N[C@@H](CC(N)=O)C(=O)N[C@H](C(=O)N[C@@H](Cc1ccc(O)cc1)C(N)=O)[C@@H](C)O)C(C)C)[C@@H](C)O [Example 70] (H-K([γGlu-C20 diacid])CNTATCATQRLAHFLRHSSPNFGAIPSSTNVGSNTY-NH2; disulfide 2-7; N-terminus assumed) | 0.04 nM | 17.9 | 0.715 nM | 7 h | 10.3 nM | 17.9 | 17.9
CC[C@H](C)[C@H](NC(=O)[C@H](C)NC(=O)CNC(=O)[C@H](Cc1ccccc1)NC(=O)[C@H](CC(N)=O)NC(=O)[C@@H]1CCCN1C(=O)[C@H](CO)NC(=O)[C@H](CO)NC(=O)[C@H](Cc1c[nH]cn1)NC(=O)[C@H](CCCNC(=N)N)NC(=O)[C@H](CC(C)C)NC(=O)[C@H](Cc1ccccc1)NC(=O)[C@H](C)NC(=O)[C@H](C)NC(=O)[C@H](CC(C)C)NC(=O)[C@H](CCCNC(=N)N)NC(=O)[C@H](CCC(N)=O)NC(=O)[C@@H](NC(=O)[C@H](C)NC(=O)[C@@H]1CSSC[C@H](NC(=O)[C@@H](N)CCCCNC(=O)COCCOCCNC(=O)CC[C@H](NC(=O)CCCCCCCCCCCCCCCCCCC(=O)O)C(=O)O)C(=O)N[C@@H](CC(N)=O)C(=O)N[C@@H]([C@@H](C)O)C(=O)N[C@@H](C)C(=O)N[C@@H]([C@@H](C)O)C(=O)N1)[C@@H](C)O)C(=O)N1CCC[C@H]1C(=O)N[C@@H](CO)C(=O)N[C@@H](CO)C(=O)N[C@H](C(=O)N1CCC[C@H]1C(=O)N[C@H](C(=O)NCC(=O)N[C@@H](CO)C(=O)N[C@@H](CC(N)=O)C(=O)N[C@H](C(=O)N[C@@H](Cc1ccc(O)cc1)C(N)=O)[C@@H](C)O)C(C)C)[C@@H](C)O [Example 72] (H-K([AEEA-γGlu-C20 diacid])CNTATCATQRLAAFLRHSSPNFGAIPSSTPVGSNTY-NH2; disulfide 2-7 (inferred); N-terminus assumed) | 0.106 nM | 44.9 | 4.76 nM | 13 h | 42.4 nM | 44.9 | 44.9
